Measurements as given in the NIST ThermoML archive (doi:10.1021/je8003673).
Numbers after ± are expanded uncertainties.

Conditions: Crystal; DTA

Normal melting temperature: 243.12 ± 0.5 °C
Compound: Nc1ccc(N)c2c1C(=O)c1ccccc1C2=O [1,4-diaminoanthraquinone]
